Laboratory results reported in US20110253633A1, “CATANIONIC VESICLES, PROCESS FOR PREPARING SAME AND APPLICATIONS THEREOF” (COMMISSARIAT A L'ENERGIE ATOMIQUE ET AUX ENERGIES ALT., priority 2008, published 2011).
Like-named read-outs stand apart in the source and are kept apart here.

What was measured:
[1] = Confocal microscopy of solutes with low internal pH vesicles; type: physicochemical; conditions: for localisation of solute encapsulated during preparation: confocal microscopy after 7 days of dialysis; for waiting time before the vesicles absorb the solute spontaneously: vesicles prepared without addition of solute
Description: Optionally, solute to be encapsulated can be added. If the vesicles were prepared without addition of solute in the preceding stages, they are then able to absorb certain compounds present in solution, for example Rhodamine B or Rhodamine 6G. It is sufficient to add the solute and wait about ten minutes before the vesicles absorb the solute spontaneously.
The presence of vesicles in the solution is checked by confocal microscopy after labelling with Oregon Green 488: take about 100 mg of solution, and add 20 μL of a saturated aqueous solution of Oregon Green 488, diluted 10-fold. Observation by confocal microscopy is carried out according to the usual techniques. An image of the vesicles is obtained, with the positive walls marked with the negative stain (FIG. 2). The vesicles are well separated.
The presence of vesicles in the solution and encapsulation of Rhodamine 6G is checked by confocal microscopy according to the usual techniques. […] The same observation can be carried out after labelling with Oregon Green 488: to 20 μL of solution, add 10 μL of a saturated aqueous solution of Oregon Green 488, diluted 10-fold.
After 7 days of dialysis, withdraw the solution from the cassette using a syringe and store it at room temperature.
After 20 minutes, zones with high concentration of Rhodamine 6G are observed by confocal microscopy (FIG. 14).

[2] = Permeability to anions and degree of encapsulation (dialysis, fluorescence at 522 nm); type: physicochemical; conditions: of the initial Oregon Green
Description: Stir at 50° C. for 72 hours.
The solution is made up to 3 mL by adding a solution of CTACl at 1.5 mM in a borate buffer solution at pH=9. The fluorescence emission at 522 nm with excitation at 502 nm is measured with a Varian Cary Eclipse fluorescence spectrometer for all the solutions prepared from each of the samples taken. The concentration of Oregon Green in each sample is proportional to the fluorescence emission to within an arbitrary factor that is not important for the measurement.
(FIG. 11). […] The ratio of the fluorescence measured from the initial solution to the fluorescence extrapolated to t=0 makes it possible to measure the degree of encapsulation. 60% of the initial Oregon Green is therefore encapsulated.

[3] = Confocal microscopy of solutes with high internal pH vesicles; type: physicochemical; conditions: Example 11 vesicles, waiting time of one minute
Description: The presence of vesicles in the solution is checked by confocal microscopy after adding Rhodamine 6G: take about 100 μL of solution, and add 10 μL of an aqueous solution of Rhodamine 6G at 10 μM. Observation by confocal microscopy is carried out according to the usual techniques.
The presence of vesicles in the solution is checked by confocal microscopy by adding Rhodamine 6G as described above.

Row | SMILES | localisation of solute encapsulated during preparation [1] | waiting time before the vesicles absorb the solute spontaneously [1] | spontaneous encapsulation of solute added after dialysis ([1]; Example 12 vesicles, after 20 minutes) | concentration in the vesicles extrapolated to t=0 (initial concentration in the solution 1.5 mM) [µM] | permeability of the vesicles to Rhodamine 6G (not told) | degree of encapsulation (of the initial Rhodamine 6G) [%] | degree of encapsulation [2] [%] | penetration of stain added after dialysis ([1]; Example 2 vesicles, excess of negative stain) | spontaneous encapsulation of solute added after dialysis [3]
1 | CCN(CC)c1ccc2c(-c3ccccc3C(=O)O)c3ccc(=[N+](CC)CC)cc-3oc2c1.[Cl-] [Rhodamine B, Chloride of Rhodamine B] | exclusively encapsulated inside the vesicles, not outside | about ten | – | – | – | – | – | – | –
2 | CC/N=c1\cc2oc3cc(NCC)c(C)cc3c(-c3ccccc3C(=O)OCC)c-2cc1C.Cl [Rhodamine 6G, Chloride of Rhodamine 6G] | present inside the vesicles, and exclusively inside | about ten | accumulated preferentially | 500 | 8.1 10^−12 cm/s | 30 | – | – | –
3 | O=C(O)c1ccccc1-c1c2cc(F)c(=O)cc-2oc2cc(O)c(F)cc12 [Oregon Green] | – | – | – | – | – | – | 60 | does not penetrate into the vesicles | spontaneous encapsulation
